Source: PubChem BioAssay (NCI)
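96-well plates; 48 h exposure; 5 concentrations. Endpoints by linear interpolation between flanking doses. Not reached: highest tested concentration assigned. Abbreviation: GI50, concentration required for 50% inhibition of growth. TGI: concentration producing complete growth inhibition.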

Experiments:
Assay in all cases: NCI anticancer screen, dose series, 48 h; in the data active means GI50 below about 0.43 µM; inactive means the rest
[1] = system: NCI-H23 lung
[2] = system: SW-620 colon
[3] = system: OVCAR-4 ovarian
[4] = system: EKVX NSCLC
[5] = system: SF-539 CNS
[6] = system: HOP-62 NSCLC
[7] = system: OVCAR-3 ovarian
[8] = system: HS 578T breast
[9] = system: IGROV1 ovarian
[10] = system: TK-10 renal
[11] = system: NCI-H460 lung
[12] = system: SR leukemia
[13] = system: HCT-116 colon
[14] = system: SK-MEL-5 melanoma
[15] = system: RXF 393 renal
[16] = system: HCC-2998 colon
[17] = system: 786-0 renal
[18] = system: SN12C renal
[19] = system: SK-MEL-2 melanoma
[20] = system: ACHN renal
[21] = system: RPMI-8226 leukemia
[22] = system: HT29 colon
[23] = system: BT-549 breast
[24] = system: OVCAR-5 ovarian
[25] = system: MALME-3M melanoma
[26] = system: PC-3 prostate
[27] = system: MOLT-4 leukemia
[28] = system: COLO 205 colon
[29] = system: CAKI-1 renal
[30] = system: K-562 leukemia
[31] = system: UO-31 renal
[32] = system: CCRF-CEM leukemia
[33] = system: HL-60(TB) leukemia
[34] = system: SK-OV-3 ovarian
[35] = system: UACC-62 melanoma
[36] = system: SF-295 CNS
[37] = system: HCT-15 colon
[38] = system: MCF7 breast
[39] = system: KM12 colon
[40] = system: DU-145 prostate
[41] = system: M14 melanoma
[42] = system: T-47D breast
[43] = system: HOP-92 NSCLC
[44] = system: A549 NSCLC
[45] = system: A498 renal
[46] = system: OVCAR-8 ovarian
[47] = system: SK-MEL-28 melanoma
[48] = system: SNB-19 CNS
[49] = system: NCI-H522 lung
[50] = system: U251 CNS
[51] = system: MDA-MB-435
[52] = system: UACC-257 melanoma
[53] = system: SNB-75 CNS
[54] = system: LOX IMVI melanoma
[55] = system: NCI-H226 lung
[56] = system: SF-268 CNS
[57] = system: MDA-MB-231 breast

O=c1ccc(N=Nc2ccc([N+](=O)[O-])cc2)ccc1O
38.8 µM: TGI [33]
81.6 µM: TGI [52]
73.6 µM: TGI [19]
> 100 µM: TGI [1] | TGI [2] | TGI [3] | TGI [4] | TGI [5] | TGI [6] | TGI [8] | TGI [9] | TGI [10] | TGI [11] | TGI [12] | TGI [13] | TGI [14] | TGI [15] | TGI [16] | TGI [17] | TGI [18] | TGI [20] | TGI [21] | TGI [22] | TGI [23] | TGI [24] | TGI [25] | TGI [26] | TGI [27] | TGI [28] | TGI [29] | TGI [30] | TGI [31] | TGI [32] | TGI [34] | TGI [36] | TGI [37] | TGI [38] | TGI [39] | TGI [40] | TGI [41] | TGI [42] | TGI [43] | TGI [44] | TGI [45] | TGI [46] | TGI [47] | TGI [48] | TGI [50] | TGI [51] | TGI [53] | TGI [54] | TGI [55] | TGI [56]
71.2 µM: TGI [57]
25.8 µM: TGI [7]
inactive: GI50 [1] 6.37 µM | GI50 [2] 3.45 µM | GI50 [3] 5.17 µM | GI50 [4] 4.29 µM | GI50 [5] 4.38 µM | GI50 [6] 18.1 µM | GI50 [7] 3.33 µM | GI50 [8] 4.27 µM | GI50 [9] 6.33 µM | GI50 [10] 20 µM | GI50 [11] 3.48 µM | GI50 [12] 4.13 µM | GI50 [13] 4.19 µM | GI50 [14] 6.55 µM | GI50 [15] 7.37 µM | GI50 [16] 6.08 µM | GI50 [17] 5.99 µM | GI50 [18] 3.61 µM | GI50 [19] 9.33 µM | GI50 [20] 7.07 µM | GI50 [21] 3.15 µM | GI50 [22] 5.71 µM | GI50 [23] 8.74 µM | GI50 [24] 30.1 µM | GI50 [25] 14.8 µM | GI50 [26] 5.15 µM | GI50 [27] 4.08 µM | GI50 [28] 21.7 µM | GI50 [29] 7.79 µM | GI50 [30] 3.83 µM | GI50 [31] 5.35 µM | GI50 [32] 3.68 µM | GI50 [33] 3.47 µM | GI50 [34] 28.4 µM | GI50 [35] 8.45 µM | GI50 [36] 4.57 µM | GI50 [37] 3.89 µM | GI50 [38] 4 µM | GI50 [39] 5.54 µM | GI50 [40] 19 µM | GI50 [41] 7.19 µM | GI50 [42] 4.31 µM | GI50 [43] 4.9 µM | GI50 [44] 6.8 µM | GI50 [45] > 100 µM | GI50 [46] 3.97 µM | GI50 [47] 8.65 µM | GI50 [48] 4.14 µM | GI50 [49] 3.42 µM | GI50 [50] 4.46 µM | GI50 [51] 9.14 µM | GI50 [52] 10.6 µM | GI50 [53] 10.8 µM | GI50 [54] 3.36 µM | GI50 [55] 12.7 µM | GI50 [56] 4.18 µM | GI50 [57] 9.64 µM
43.9 µM: TGI [35]
28.3 µM: TGI [49]
